Values quoted from earlier work, collected in patent publication US20230104487A1, “11-(4-CHLOROPHENYL)-4-(2,3-DIHYDRO-1H-INDOLE-1-CARBONYL)-3,11-DIMETHYL-5,10,DIOXATRICYCLO[7.4.0.0,2,6,]TRIDECA-1,3,6,8-TETRAEN-13-ONE AND DERIVATIVES AS DESTABILIZER OF CRY1 FOR THE TREATMENT OF CIRCADIAN RHYTHM ASSOCIATED DISEASES AND DISORDERS” (KOC UNIVERSITESI, priority 2019, published 2023).

Assays:
[1] = tested on: CRYs; details: Hirota et al., 2012; cited from earlier work
[2] = tested on: gluconeogenesis; details: Hirota et al., 2012; cited from earlier work
[3] = tested on: REV-ERB; details: Solt et al., 2012; cited from earlier work

Compound | effect on stability of the CRYs [1] | effect on gluconeogenesis [2] | effect on REV-ERB's repressor function [3]
CS(=O)(=O)N(Cc1ccco1)CC(O)Cn1c2ccccc2c2ccccc21 (stereo not drawn) [KL001] | increases stability of the CRYs | suppresses the gluconeogenesis | –
CC(C)(C)OC(=O)CN(Cc1ccc(Cl)cc1)Cc1ccc([N+](=O)[O-])s1 [GSK4112] | – | – | enhance REV-ERB's repressor function toward Bmal1 transcription
